Measurements reported in ChEMBL document CHEMBL1201862, “PubChem BioAssay data set” (2004).
Each block holds one compound with its values, some of them ahead of it. Calls of active or inactive are those of the source.

Columns and labels:
[1] = target: Cytochrome P450 2C9 (Homo sapiens, UniProt P11712); conditions: Potency
[2] = target: Cytochrome P450 3A4 (Homo sapiens, UniProt P08684); conditions: Potency;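 note: confirmatory qHTS run detecting inhibitors and substrates of CYP3A4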
[3] = target: Cytochrome P450 2D6 (Homo sapiens, UniProt P10635); experiment: qHTS Assay for Inhibitors and Substrates of Cytochrome P450 2D6. [Related pubchem assays: 410 ]; format: ADME; conditions: read-out: Potency
Chain of Cytochrome P450 2D6 (P10635 whole entry): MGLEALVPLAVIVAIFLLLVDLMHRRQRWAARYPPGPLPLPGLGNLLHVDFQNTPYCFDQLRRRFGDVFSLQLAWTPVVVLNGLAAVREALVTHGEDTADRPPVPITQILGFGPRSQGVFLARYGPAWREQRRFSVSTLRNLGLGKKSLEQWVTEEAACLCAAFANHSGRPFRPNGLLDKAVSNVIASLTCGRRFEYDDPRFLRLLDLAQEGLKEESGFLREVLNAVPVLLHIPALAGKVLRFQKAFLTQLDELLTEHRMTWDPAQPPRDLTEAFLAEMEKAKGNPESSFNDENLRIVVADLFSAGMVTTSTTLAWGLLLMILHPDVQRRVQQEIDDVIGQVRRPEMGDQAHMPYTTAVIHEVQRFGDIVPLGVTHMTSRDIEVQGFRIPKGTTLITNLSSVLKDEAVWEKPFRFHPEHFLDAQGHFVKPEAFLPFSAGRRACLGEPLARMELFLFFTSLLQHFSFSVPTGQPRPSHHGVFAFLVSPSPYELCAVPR

[4] = enhancers of respiration in Yfh1-depleted yeast, dose response, Friedreich's ataxia, plus single-dose screen (AID 1465); format: functional;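 note: yeast depleted of Yfh1p frataxin homolog grown on glycerol needing respiration; WST-1 tetrazolium dye reduction as measure of cellular dehydrogenase metabolic activity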
[5] = Counterscreen for IDE inhibitors: Luminescence-based cell-based high throughput dose response assay to identify compounds that are cytotoxic to HEK cells. [Related pubchem assays: 434962 (Primary screen (IDE inhibitors in singlicate)), 449730 (Counterscreen (Cytotoxicity in triplicate)), 435028 (Confirmation (IDE inhibitors in triplicate)) …; format: functional; conditions: HEK293
[6] = target: T1, Leucine aminopeptidase (Plasmodium falciparum 3D7, UniProt Q8IL11); experiment: P. falciparum M17LAP inhibitors, primary screen, biochemical, fluorogenic H-Leu-NHMec substrate, 1536-well (AID 1619); format: functional
T1 sequence (Q8IL11 whole entry): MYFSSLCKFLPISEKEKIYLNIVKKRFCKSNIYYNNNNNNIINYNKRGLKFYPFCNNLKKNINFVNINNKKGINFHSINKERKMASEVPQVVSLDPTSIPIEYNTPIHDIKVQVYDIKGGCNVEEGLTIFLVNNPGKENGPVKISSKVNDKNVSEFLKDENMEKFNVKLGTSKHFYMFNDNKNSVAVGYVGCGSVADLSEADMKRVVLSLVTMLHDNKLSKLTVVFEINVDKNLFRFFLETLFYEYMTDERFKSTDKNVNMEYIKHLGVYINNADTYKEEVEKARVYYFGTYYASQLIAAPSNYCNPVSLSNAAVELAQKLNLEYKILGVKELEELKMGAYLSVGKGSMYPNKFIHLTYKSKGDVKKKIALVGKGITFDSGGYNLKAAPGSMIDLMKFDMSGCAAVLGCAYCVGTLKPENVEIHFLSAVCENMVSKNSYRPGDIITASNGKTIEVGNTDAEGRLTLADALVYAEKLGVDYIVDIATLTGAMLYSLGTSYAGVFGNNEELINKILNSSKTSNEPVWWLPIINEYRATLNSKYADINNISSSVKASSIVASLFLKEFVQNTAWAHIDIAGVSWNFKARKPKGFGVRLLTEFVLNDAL

[7] = target: T2, Insulin-degrading enzyme (Homo sapiens, UniProt P14735); experiment: Dose Response: Fluorescence polarization-based cell-based high throughput dose response assay for inhibitors of insulin-degrading enzyme (IDE). [Related pubchem assays: 434962 (Primary screen (IDE inhibitors in singlicate)), 449730 (Counterscreen (Cytotoxicity in triplicate)), 435028 (Confirmation (IDE inhibitors in triplicate)), 434984 (Summary …; format: functional
T2 sequence (P14735 whole entry): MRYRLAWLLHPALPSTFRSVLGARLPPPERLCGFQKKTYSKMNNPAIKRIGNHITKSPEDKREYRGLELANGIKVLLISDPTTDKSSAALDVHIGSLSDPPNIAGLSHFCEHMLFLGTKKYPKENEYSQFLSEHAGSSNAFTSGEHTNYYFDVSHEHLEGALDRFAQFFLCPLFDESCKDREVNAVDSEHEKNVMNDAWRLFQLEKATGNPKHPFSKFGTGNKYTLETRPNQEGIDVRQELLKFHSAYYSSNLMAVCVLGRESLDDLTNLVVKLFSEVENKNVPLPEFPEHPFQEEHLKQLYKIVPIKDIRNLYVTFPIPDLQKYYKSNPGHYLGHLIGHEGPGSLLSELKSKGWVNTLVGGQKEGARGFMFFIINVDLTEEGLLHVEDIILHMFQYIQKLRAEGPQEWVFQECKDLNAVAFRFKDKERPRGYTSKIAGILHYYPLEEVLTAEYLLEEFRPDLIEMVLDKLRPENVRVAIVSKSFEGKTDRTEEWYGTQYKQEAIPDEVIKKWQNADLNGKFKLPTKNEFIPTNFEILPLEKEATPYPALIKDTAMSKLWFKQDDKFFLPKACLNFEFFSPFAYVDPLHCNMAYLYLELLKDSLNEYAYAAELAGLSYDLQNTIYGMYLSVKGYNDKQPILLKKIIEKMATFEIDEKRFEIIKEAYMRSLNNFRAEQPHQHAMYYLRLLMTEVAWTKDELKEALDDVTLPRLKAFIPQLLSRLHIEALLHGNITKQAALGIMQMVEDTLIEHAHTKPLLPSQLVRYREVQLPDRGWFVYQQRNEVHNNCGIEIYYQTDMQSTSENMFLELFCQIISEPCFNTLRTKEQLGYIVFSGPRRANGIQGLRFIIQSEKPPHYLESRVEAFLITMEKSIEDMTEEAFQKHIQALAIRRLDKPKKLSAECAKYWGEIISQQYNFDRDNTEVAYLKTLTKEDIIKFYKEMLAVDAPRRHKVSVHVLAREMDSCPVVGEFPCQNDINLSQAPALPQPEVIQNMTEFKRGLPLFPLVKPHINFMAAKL

[8] = target: Trypsin (Sus scrofa, UniProt P00761); experiment: porcine trypsin inhibitors, dose response, selectivity assay for Rce1 protease inhibitor project, biochemical, quenched peptide fluorescence, cherry-pick (AID 488789)
Chain of Trypsin (P00761 whole entry): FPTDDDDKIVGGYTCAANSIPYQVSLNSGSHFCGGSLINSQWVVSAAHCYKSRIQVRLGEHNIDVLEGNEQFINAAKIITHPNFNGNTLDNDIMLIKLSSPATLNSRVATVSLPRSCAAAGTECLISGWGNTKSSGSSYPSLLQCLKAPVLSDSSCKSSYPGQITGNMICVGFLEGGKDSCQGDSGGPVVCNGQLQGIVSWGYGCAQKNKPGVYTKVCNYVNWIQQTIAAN

[9] = target: T3, CAAX prenyl protease 2 (Homo sapiens, UniProt Q9Y256); experiment: human Rce1 protease inhibitors, dose response, biochemical, yeast membranes, quenched-peptide fluorescence, cherry-pick (AID 588849)
T3 sequence (Q9Y256 whole entry): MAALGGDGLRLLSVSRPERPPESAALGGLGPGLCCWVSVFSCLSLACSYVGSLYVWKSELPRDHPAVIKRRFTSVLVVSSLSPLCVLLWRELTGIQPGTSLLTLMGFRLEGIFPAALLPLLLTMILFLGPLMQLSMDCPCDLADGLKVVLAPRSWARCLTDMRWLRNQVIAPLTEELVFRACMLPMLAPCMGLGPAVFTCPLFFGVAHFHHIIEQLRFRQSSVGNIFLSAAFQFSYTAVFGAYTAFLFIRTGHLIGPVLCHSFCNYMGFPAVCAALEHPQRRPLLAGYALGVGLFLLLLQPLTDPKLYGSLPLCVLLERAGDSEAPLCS

[10] = target: CAAX prenyl protease 2 (Saccharomyces cerevisiae S288c, UniProt Q03530); format: biochemical
Chain of CAAX prenyl protease 2 (Saccharomyces cerevisiae S288c, UniProt Q03530) (Q03530 whole entry): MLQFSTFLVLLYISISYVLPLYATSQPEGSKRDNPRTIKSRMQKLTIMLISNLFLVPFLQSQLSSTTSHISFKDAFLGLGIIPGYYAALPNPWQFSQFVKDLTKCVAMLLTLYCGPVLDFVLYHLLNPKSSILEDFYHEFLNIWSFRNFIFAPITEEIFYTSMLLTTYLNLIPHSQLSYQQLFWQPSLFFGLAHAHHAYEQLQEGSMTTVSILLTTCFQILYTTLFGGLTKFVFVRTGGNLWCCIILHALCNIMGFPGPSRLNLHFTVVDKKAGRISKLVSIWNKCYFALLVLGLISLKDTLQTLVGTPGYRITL

[11] = target: Photoreceptor-specific nuclear receptor (Homo sapiens, UniProt Q9Y5X4); format: functional;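 note: potency for compounds that break the NR2E3 corepressor complex and count as activators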
[12] = target: Peroxisome proliferator-activated receptor gamma/Nuclear receptor corepressor 2 (Homo sapiens, UniProt P37231+Q9Y618); format: functional
[13] = target: Peroxisome proliferator-activated receptor gamma/Nuclear receptor coactivator 2 (Homo sapiens, UniProt P37231); experiment: (§1) TR-FRET dose response biochemical High Throughput Screening assay for agonists of the steroid receptor coactivator 2 (SRC-2) recruitment by the peroxisome proliferator-activated receptor gamma (PPAR gamma): non-selective agonists. [Related pubchem assays: 1297, 1032 ]; format: functional
[14] = target: Peroxisome proliferator-activated receptor gamma/Nuclear receptor coactivator 3 (Homo sapiens, UniProt P37231); experiment: as §1, with “3 (SRC-3)” for “2 (SRC-2)”, “1301 (Confirmation screen.), 1048 (Primary screen.)]” for “1297, 1032 ]”; format: functional
[15] = target: Peroxisome proliferator-activated receptor gamma/Nuclear receptor coactivator 1 (Homo sapiens, UniProt P37231); experiment: as §1, with “1 (SRC-1)” for “2 (SRC-2)”, “assays (depositor defined):AID1300, AID1808, AID504735, AID631]” for “assays: 1297, 1032 ]”; format: protein assay
[16] = target: Induced myeloid leukemia cell differentiation protein Mcl-1 (Homo sapiens, UniProt Q07820); format: functional
Chain of Induced myeloid leukemia cell differentiation protein Mcl-1 (Q07820 whole entry): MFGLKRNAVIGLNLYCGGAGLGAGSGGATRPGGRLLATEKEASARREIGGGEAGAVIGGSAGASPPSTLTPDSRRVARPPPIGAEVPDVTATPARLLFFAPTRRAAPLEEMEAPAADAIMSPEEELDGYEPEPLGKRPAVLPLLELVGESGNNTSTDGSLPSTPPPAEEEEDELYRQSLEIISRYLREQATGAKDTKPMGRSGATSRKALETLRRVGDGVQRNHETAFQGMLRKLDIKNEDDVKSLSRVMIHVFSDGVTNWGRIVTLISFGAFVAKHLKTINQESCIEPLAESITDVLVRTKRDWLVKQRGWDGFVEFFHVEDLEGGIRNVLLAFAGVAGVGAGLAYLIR

[17] = target: T4, Voltage-gated N-type calcium channel alpha-1B subunit/Amyloid beta A4 precursor protein-binding family A member 1 (Homo sapiens, UniProt Q00975+Q02410); format: protein assay
T4 sequence (Q00975 whole entry): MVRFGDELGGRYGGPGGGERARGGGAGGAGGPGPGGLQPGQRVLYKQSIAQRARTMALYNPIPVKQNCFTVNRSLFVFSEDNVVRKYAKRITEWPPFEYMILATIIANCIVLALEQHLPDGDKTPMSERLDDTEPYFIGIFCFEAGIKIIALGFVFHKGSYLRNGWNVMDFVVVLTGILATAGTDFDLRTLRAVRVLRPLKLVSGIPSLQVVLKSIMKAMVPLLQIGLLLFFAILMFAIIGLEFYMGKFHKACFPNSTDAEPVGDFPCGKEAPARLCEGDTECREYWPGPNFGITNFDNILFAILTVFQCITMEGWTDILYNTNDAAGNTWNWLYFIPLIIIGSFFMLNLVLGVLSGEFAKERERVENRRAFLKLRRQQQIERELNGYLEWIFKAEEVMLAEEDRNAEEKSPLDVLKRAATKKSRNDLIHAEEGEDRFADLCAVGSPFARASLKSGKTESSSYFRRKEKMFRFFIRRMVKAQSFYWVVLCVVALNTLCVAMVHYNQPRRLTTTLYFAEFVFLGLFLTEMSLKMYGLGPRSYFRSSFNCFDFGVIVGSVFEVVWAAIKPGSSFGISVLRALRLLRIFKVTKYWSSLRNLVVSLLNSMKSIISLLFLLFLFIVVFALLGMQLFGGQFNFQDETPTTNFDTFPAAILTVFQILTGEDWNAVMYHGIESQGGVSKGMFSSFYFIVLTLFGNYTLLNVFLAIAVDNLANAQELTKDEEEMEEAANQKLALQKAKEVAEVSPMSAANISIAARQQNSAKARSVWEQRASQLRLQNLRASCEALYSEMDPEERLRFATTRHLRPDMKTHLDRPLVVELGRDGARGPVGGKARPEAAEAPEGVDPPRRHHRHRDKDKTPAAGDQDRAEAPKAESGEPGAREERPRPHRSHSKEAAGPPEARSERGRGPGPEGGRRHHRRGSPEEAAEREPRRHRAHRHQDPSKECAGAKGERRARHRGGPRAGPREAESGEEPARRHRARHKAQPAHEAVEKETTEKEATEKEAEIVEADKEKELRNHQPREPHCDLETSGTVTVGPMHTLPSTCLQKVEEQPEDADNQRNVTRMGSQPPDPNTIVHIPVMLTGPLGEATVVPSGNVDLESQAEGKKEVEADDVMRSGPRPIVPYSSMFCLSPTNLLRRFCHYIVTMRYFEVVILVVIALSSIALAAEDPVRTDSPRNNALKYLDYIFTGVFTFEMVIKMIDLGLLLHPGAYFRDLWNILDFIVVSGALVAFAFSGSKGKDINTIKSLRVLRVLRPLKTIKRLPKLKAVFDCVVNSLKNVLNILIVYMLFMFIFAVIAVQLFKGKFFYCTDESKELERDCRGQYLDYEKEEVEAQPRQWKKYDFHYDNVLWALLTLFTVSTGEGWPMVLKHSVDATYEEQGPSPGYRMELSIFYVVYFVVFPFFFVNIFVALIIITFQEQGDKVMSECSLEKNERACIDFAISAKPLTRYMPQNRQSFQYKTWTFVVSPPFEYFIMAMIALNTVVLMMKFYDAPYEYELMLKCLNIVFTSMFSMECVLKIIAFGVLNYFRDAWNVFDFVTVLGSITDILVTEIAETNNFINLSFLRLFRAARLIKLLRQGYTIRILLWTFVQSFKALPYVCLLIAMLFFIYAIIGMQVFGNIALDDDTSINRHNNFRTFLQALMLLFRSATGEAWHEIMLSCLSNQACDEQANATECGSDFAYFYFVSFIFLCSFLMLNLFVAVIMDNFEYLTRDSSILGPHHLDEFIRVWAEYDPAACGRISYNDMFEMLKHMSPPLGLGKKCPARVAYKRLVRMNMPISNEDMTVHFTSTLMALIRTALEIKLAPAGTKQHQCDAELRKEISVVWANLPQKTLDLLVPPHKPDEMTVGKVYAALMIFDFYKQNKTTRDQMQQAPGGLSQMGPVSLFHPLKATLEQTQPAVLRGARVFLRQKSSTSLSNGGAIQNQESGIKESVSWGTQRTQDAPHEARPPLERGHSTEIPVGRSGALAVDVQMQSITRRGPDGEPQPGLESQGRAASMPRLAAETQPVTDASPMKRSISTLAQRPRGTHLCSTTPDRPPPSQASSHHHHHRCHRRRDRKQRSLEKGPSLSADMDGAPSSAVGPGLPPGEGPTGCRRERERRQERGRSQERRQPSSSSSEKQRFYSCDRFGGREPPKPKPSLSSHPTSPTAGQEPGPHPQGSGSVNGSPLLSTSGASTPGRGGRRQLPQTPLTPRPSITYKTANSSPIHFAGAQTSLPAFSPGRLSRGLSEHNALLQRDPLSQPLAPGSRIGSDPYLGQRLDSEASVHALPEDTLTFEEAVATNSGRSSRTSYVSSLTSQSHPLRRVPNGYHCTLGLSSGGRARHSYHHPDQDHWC
T4 sequence (Q02410 whole entry): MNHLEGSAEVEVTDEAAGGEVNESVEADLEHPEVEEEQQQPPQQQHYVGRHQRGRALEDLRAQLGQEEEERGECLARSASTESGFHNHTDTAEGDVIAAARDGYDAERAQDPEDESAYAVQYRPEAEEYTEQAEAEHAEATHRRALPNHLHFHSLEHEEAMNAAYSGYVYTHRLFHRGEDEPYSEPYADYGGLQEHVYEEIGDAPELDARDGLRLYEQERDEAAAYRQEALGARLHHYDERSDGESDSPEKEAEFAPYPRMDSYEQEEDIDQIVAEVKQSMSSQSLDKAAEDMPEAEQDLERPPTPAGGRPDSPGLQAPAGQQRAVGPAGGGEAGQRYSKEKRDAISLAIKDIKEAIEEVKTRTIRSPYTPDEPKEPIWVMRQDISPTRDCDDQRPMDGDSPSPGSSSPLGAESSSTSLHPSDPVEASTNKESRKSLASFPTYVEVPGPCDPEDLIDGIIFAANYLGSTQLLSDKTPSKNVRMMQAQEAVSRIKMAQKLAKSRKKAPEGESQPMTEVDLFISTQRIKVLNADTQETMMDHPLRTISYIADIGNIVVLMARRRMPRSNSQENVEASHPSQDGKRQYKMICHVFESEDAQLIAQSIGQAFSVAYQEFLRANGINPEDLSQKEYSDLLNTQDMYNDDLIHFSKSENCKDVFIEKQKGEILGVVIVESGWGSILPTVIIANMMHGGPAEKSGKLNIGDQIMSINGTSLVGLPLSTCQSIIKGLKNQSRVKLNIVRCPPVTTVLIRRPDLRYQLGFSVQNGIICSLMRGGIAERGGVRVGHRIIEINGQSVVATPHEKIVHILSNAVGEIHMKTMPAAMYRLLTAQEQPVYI

[18] = target: T4, Voltage-gated N-type calcium channel alpha-1B subunit/Amyloid beta A4 precursor protein-binding family A member 1; format: protein assay; remark: listed apart in the source

Chain of Cytochrome P450 2C9 (P11712 whole entry): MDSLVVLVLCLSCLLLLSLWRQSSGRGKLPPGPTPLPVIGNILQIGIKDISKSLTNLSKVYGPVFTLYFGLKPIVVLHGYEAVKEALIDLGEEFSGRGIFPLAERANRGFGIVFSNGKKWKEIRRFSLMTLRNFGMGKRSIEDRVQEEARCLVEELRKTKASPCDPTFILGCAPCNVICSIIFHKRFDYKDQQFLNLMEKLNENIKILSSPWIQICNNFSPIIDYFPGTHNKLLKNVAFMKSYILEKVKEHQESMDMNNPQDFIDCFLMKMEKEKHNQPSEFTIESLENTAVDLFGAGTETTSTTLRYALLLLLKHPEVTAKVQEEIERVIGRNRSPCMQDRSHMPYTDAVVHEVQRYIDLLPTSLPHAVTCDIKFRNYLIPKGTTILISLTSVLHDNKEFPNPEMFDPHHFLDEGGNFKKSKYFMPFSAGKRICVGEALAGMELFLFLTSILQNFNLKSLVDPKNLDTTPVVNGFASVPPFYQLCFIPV

Compound: Nc1c(S(=O)(=O)O)cc(Nc2ccc(Nc3nc(Cl)nc(Nc4ccc(S(=O)(=O)O)cc4)n3)c(S(=O)(=O)O)c2)c2c1C(=O)c1ccccc1C2=O
AC50 [1]: 39.8 µM (inconclusive)
AC50 [2]: 25.1 µM (inconclusive)
AC50 [3]: 39.8 µM (inconclusive)

Compound: CCN(CC)c1ccc(/C=C(/C#N)C(=O)NC(C)C)o1
EC50 [4]: > 100 µM (active)
IC50 [5]: > 55.7 µM (not active)
IC50 [6]: 65.8 µM (active)
IC50 [7]: 13.2 µM (not active)

Compound: O=C(Nc1nc(-c2cccs2)c(C(=O)C(F)(F)F)s1)c1ccco1
IC50 [11]: > 39.8 µM (not active)
IC50 [12]: 2.22 µM (active)
EC50 [13]: 50 µM (not active)
EC50 [14]: > 79.4 µM (not active)
EC50 [15]: > 79.4 µM (inactive)

Now from value to compound:

AC50 [8]: 2.73 µM (active)
AC50 [9]: 3.8 µM (active)
AC50 [10]: 84.5 µM (active)
Compound: Cc1cc(C)cc(Nc2ccc(C(=O)O)cc2N)c1

IC50 [16]: 4.71 µM (active)
IC50 [17]: 6.07 µM (active)
IC50 [18]: 6.21 µM (active)
Compound: Cc1ccc(-c2nc3c(c(=O)[nH]c(=O)n3Cc3ccccc3)n2C)o1
